Experimental data as given in patent US9504674B2, “TrkB agonists and methods of use” (EMORY UNIVERSITY, priority 2010, dated 2016).
Where “and” joins values, the source holds several entries; their conditions need not be identical. Identical values can stand only once. Entries after “also recorded” stand apart in the source; their conditions may differ.

Experiments:
[1] = target: T1, TrkB (Mus musculus, UniProt P15209); assay: TrkB activation in mouse brain after single oral administration (immunoblotting); type: in vivo; conditions: 1 mg/kg oral, C57BL/6J mice
T1 construct: from tissue; host or cells: brain of wild-type C57BL/6J mice
T1 sequence (P15209 32-821): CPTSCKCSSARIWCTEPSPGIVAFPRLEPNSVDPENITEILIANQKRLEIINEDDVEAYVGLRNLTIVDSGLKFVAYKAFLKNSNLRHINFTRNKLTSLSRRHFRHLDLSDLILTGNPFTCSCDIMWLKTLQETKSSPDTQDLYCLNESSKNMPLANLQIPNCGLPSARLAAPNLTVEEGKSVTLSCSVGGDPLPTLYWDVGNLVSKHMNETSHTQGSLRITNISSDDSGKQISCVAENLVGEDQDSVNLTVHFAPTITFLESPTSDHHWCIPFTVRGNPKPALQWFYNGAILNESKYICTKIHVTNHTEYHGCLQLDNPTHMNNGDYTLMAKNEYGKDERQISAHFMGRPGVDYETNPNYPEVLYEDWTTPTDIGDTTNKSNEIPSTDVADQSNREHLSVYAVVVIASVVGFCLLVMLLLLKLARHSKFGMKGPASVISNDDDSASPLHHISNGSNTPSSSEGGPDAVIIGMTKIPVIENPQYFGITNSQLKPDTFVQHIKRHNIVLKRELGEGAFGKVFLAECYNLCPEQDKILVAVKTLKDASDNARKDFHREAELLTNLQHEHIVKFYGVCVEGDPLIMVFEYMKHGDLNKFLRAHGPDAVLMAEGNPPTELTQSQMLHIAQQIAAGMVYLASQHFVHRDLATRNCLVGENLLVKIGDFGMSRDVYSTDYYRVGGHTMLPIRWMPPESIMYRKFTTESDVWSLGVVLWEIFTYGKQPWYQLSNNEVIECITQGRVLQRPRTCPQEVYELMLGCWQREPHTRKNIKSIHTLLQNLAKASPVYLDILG
Experimental: Rat primary neurons were treated with 500 nM. 4′-DMA-7,8-DHF from various time points. The neuronal lysates were analyzed with various antibodies. 4′-DMA-7,8-DHF rapidly activated TrkB and its downstream signaling cascades (left panels). […] One mg/kg of 4′-DMA-7,8-DHF and 7,8-DHF were orally administrated into C57 BL/6J mice and TrkB phosphorylation and its downstream signaling cascades including Akt and MAPK in mouse brain were analyzed by immunoblotting at various time points. TrkB activation by 4′-DMA-7,8-DHF peaked at 4 h, whereas the maximal TrkB activation by 7,8-DHF in mouse brain occurred at 1-2 h (middle panels).
1 mg/kg of various compounds were orally administrated into C57 BL/6J mice and TrkB phosphorylation and its downstream signaling cascades including Akt and MAPK in mouse brain were analyzed by immunoblotting at 2 h.
Time course assay with compound i and m in mouse brain. 1 mg/kg of compound i and m were orally administrated into C57 BL/6J mice and TrkB phosphorylation and its downstream signaling cascades including Akt and MAPK in mouse brain were analyzed by immunoblotting at various time points.
(§1) To compare the TrkB activation by these synthetic compounds, primary cortical cultures were prepared. Cortical neurons were treated with 500 nM of various compounds for 20 min and cell lysates were collected. […] Replacing the H-bond acceptor O atom with hydrogen bond donor NH abolishes its stimulatory effect. […] On the other hand, 7,8-DHF provoked TrkB activation with the minimal concentration of 100 nM (FIG. 2B, right panels). To further study 4′-DMA-7,8-DHF's kinetics on TrkB activation, primary neurons were treated for various time points. 4′-DMA-7,8-DHF swiftly activated TrkB as soon as 5 minutes following treatment. […] To compare the stimulatory effect on TrkB receptor in mouse brains, 1 mg/kg of the synthesized derivatives were injected into C57BL/6J mice. TrkB activation was monitored at different time points.
The compounds were orally injected (1 mg/kg) into C57BL/6J mice. The TrkB and its downstream signaling cascades activation at 2 h were examined after drug administration with mouse brain tissues. […] The downstream p-Akt and p-MAPK tightly coupled to p-TrkB signals.

[2] = target: T2, TrkB (Rattus norvegicus, UniProt Q63604); assay: TrkB phosphorylation in primary rat cortical neurons (immunoblotting); type: cell-based; conditions: for TrkB activation (phosphorylation) compared to vehicle control: 500 nM compound, 20 min, primary rat cortical neurons, immunoblotting; for minimal concentration triggering TrkB activation (titration assay): primary cortical neurons, different doses
T2 construct: endogenous in cells; host or cells: primary rat cortical neurons (E17 embryos, 13 DIV)
T2 sequence (Q63604 32-821): as the sequence (P15209 32-821) above, with T3M, S9T, A10T, V32I, R63K, S84G, M153T, L185I, S394T, S770N counted along it
Experimental: (§2) Primary rat cortical neurons from E17 embryos (13 DIV) were treated with 500 nM various chemicals for 15 min. The neuronal cell lysates were collected and resolved on 10% SDS-PAGE. Immunoblotting was conducted with various antibodies. p-TrkB Y817 antibody was employed at 1:20000-40000 dilution.
as §2, with “days in vitro (DIV))” for “DIV)”, “1:20,000-40,000 dilution (top panel). Equal amount of TrkB was loaded in all of the samples (middle panel). P-Akt 473 ELISA analysis with the neuronal lysates (bottom panel).” for “1:20000-40000 dilution.”
7,8-dihydroxyflavone (7,8-DHF) is a small molecular TrkB agonist. Preliminary structure-activity relationship study (SAR) supports that 7,8-catechol moiety is essential for the agonistic effect by 7,8-DHF. To explore the structure-activity relationship (SAR) in depth, the TrkB stimulatory activity was examined by numerous flavonoid derivatives. The numeric positions and each ring's nomenclature are designated (FIG. 1A). Compounds were dissolved in DMSO, then diluted into […] with 1× PBS (final vehicle contains 10% DMSO/PBS) (FIG. 1B). Primary rat cortical neurons were treated with 500 nM compounds for 20 min. The cell lysates were analyzed by immunoblotting. […] Downstream activation of the TrkB target Akt was tightly correlated with TrkB activation patterns by these derivatives (FIG. 1C, bottom panel). As observed, the hydroxy groups on B ring can regulate 7,8-DHF's stimulatory activity on TrkB receptor. As 2′-hydroxy, especially 3′-hydroxy group, elevates the agonistic effect, whereas 4′-hydroxy group diminishes its stimulatory effect.
as §1
Additional compounds are listed as designated from a to m (FIG. 6A). The compounds were dissolved in DMSO, then diluted into 500 μM with 1× PBS (final vehicle contains 10% DMSO/PBS). The primary rat cortical neurons (13 DIV) were treated with 500 nM compounds for 20 min. The cell lysates were analyzed by immunoblotting. […] Moreover, p-Akt ELISA was monitored to quantitatively analyze the agonistic activities of these compounds.

[3] = primary neurons, 500 nM, time course

| SMILES | time of onset of TrkB activation in mouse brain [1] | TrkB activity in mouse brain at 16 h [1] | TrkB activation (phosphorylation) compared to vehicle control [2] | minimal concentration triggering TrkB activation (titration assay) [2] | TrkB phosphorylation in mouse brain at 2 h [1] | TrkB activation in mouse brain, time course, compared with compound i ([1]; various time points) | duration of TrkB agonistic effect in animals compared with 7,8-DHF [1] | time of peak TrkB activation in mouse brain [1] | TrkB activation (phosphorylation) compared to vehicle control ([2]; listed as compound a) | agonistic effect on TrkB relative to parental 7,8-DHF ([2]; from titration assays) | time at which TrkB signal decayed back to baseline [2, 3] | time to TrkB activation following treatment [2, 3] |
| --- | --- | --- | --- | --- | --- | --- | --- | --- | --- | --- | --- | --- |
| O=c1cc(-c2ccccc2)oc2c(O)c(O)ccc12 [7,8-DHF, 7,8-dihydroxyflavone, reference compound] | approximately 2 h | Elevated TrkB activity was demonstrable even at 16 h | stimulated TrkB activation | 100 nM |  |  |  |  |  |  |  |  |
| CN(C)c1ccc(-c2cc(=O)c3ccc4nc[nH]c4c3o2)cc1 [compound m, 8-(4-(dimethylamino)phenyl)chromeno[7,8-d]imidazol-6(1H)-one] |  |  | exhibited strong p-TrkB activity |  | exhibited the strongest TrkB phosphorylation | more robust and sustained TrkB activation than compound i |  |  |  |  |  |  |
| CN(C)c1ccc(-c2cc(=O)c3ccc(O)c(O)c3o2)cc1 [4′-DMA-7,8-DHF, 4′-dimethylamino-7,8-dihydroxyflavone] | 1 h | partially decayed at 16 h | strongly activated TrkB | 10 nM | exhibited the strongest TrkB phosphorylation |  | sustained longer in animals; also recorded: longer period of TrkB activation in mouse brain | 8 h and 4 h | activated TrkB better than compounds b to d | about 10 fold | 30 to 180 min | 5 min |
